pEC50: −log10 of the molar value.

The experiment addresses T1, hGPR119 (Homo sapiens, UniProt Q8TDV5).
T1 construct: expressed in transfected cells; host or cells: CHO
T1 sequence (Q8TDV5 1-335): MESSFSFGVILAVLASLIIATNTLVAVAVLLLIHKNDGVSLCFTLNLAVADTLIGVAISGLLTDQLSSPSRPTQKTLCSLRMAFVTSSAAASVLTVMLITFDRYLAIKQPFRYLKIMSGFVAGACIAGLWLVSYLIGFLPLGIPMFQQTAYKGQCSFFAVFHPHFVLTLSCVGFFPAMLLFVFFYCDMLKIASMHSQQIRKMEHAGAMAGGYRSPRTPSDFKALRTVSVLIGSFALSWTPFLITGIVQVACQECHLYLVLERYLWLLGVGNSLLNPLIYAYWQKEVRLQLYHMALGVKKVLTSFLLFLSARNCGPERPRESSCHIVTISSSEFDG
The experiment can be described thus: In vitro cyclic AMP assay (Cisbio dynamic 2 HTRF kit) in CHO-hGPR119 cells. The experiment is classed as cell-based. Particulars: cAMP; for activation at 1 µM: 1 h, compound at 1 μM, 60 min, read-out: Induction (% induction at 1 μM). How it is done: cAMP measurements were done using Cisbio dynamic 2 HTRF kit according to the manufacturer's protocol. Briefly, CHO-hGPR119 cells were plated at a cell density of 5000 cells/well/5 μl into a white small volume 384 well plate. The final concentrations of IBMX and DMSO used were 1 mM and 0.5% respectively. Cells were treated with various concentrations of the test compound for 60 min at room temperature. Cells were lysed by buffer containing Anti-cAMP antibody and d2-cAMP reagents and incubated for 1 hour at room temperature. HTRF was measured at 337 nm excitation and emission wavelengths of 665 nm and 620 nm on a microplate reader (Flurostar, BMG Labtech). Graphpad prism software was utilized for EC50 determinations.

Regarding `C[C@H](Oc1nc2ccc(-c3ccc(S(C)(=O)=O)nc3)nc2s1)C1CCN(c2nc(C(F)(F)F)no2)CC1` (stereo in doubt) [Compound 1145, 2-(1-(1-(3-(trifluoromethyl)-1,2,4-oxadiazol-5-yl)piperidin-4-yl)ethoxy)-5-(6-(methylsulfonyl)pyridin-3-yl)thiazolo[5,4-b]pyridine], the activation at 1 µM was determined as 65%.

For the molecule `CC(C)c1noc(N2CCC(C(C)Oc3nc4ccc(-c5ccc(S(=O)(=O)C6CC6)nc5)nc4s3)CC2)n1` (stereo in doubt) [Compound 1164, 2-((S)-1-(1-(3-isopropyl-1,2,4-oxadiazol-5-yl)piperidin-4-yl)ethoxy)-5-(6-(cyclopropylsulfonyl)pyridin-3-yl)thiazolo[5,4-b]pyridine], the activation at 1 µM is 72%.

`Cc1nc(S(C)(=O)=O)ccc1-c1ccc2nc(OC(C)C3CCN(c4nc(C(C)C)no4)CC3)sc2n1` (stereo in doubt) [Compound 1168, 2-((S)-1-(1-(3-isopropyl-1,2,4-oxadiazol-5-yl)piperidin-4-yl)ethoxy)-5-(2-methyl-6-(methylsulfonyl)pyridin-3-yl)thiazolo[5,4-b]pyridine]: the activation at 1 µM amounted to 22%.

As to `CC(C)c1noc(C2CCN(c3ccc4nc(-c5ccc(S(C)(=O)=O)cc5)sc4n3)CC2)n1` [Compound 1003, 3-isopropyl-5-(1-(2-(4-(methylsulfonyl)phenyl)thiazolo[5,4-b]pyridin-5-yl)piperidin-4-yl)-1,2,4-oxadiazole], the activation at 1 µM is 29%.

Take `CC(C)c1noc(C2CCN(c3nc4ccc(-c5ccc(S(C)(=O)=O)cc5)nc4s3)CC2)n1` [Compound 1004, 3-isopropyl-5-(1-(5-(4-(methylsulfonyl)phenyl)thiazolo[5,4-b]pyridin-2-yl)piperidin-4-yl)-1,2,4-oxadiazole]: the activation at 1 µM stood at 45%.

As for `CC(C)c1noc(N2CCC(Oc3nc4ccc(Oc5ccc(S(C)(=O)=O)cc5)nc4s3)CC2)n1` [Compound 1005, 3-isopropyl-5-(4-((5-(4-(methylsulfonyl)phenoxy)thiazolo[5,4-b]pyridin-2-yl)oxy)piperidin-1-yl)-1,2,4-oxadiazole], the activation at 1 µM was 6%.

On to `CC(C)c1noc(N2CCC(COc3nc4ccc(-c5ccc(S(C)(=O)=O)cc5)nc4s3)CC2)n1` [Compound 1006, 3-isopropyl-5-(4-(((5-(4-(methylsulfonyl)phenyl)thiazolo[5,4-b]pyridin-2-yl)oxy)methyl)piperidin-1-yl)-1,2,4-oxadiazole], for which the activation at 1 µM amounted to 31%.

Consider `CC(C)c1noc(N2CCC(Oc3nc4ccc(-c5ccc(S(C)(=O)=O)cc5)nc4s3)CC2)n1` [Compound 1007, 3-isopropyl-5-(4-((5-(4-(methylsulfonyl)phenyl)thiazolo[5,4-b]pyridin-2-yl)oxy)piperidin-1-yl)-1,2,4-oxadiazole], for which the activation at 1 µM came to 39%.

For `CCc1cnc(N2CCN(c3nc4ccc(-c5ccc(S(C)(=O)=O)cc5)nc4s3)CC2)nc1` [Compound 1008, 2-(4-(5-ethylpyrimidin-2-yl)piperazin-1-yl)-5-(4-(methylsulfonyl)phenyl)thiazolo[5,4-b]pyridine], the activation at 1 µM was 3%.

On to `CS(=O)(=O)c1ccc(-c2nc3ccc(OCC4CCN(Cc5ccccc5)CC4)nc3s2)cc1` [Compound 1009, 5-((1-benzylpiperidin-4-yl)methoxy)-2-(4-(methyslulfonyl)phenyl)thiazolo[5,4-b]pyridine], for which the activation at 1 µM was found to be 5%.

Consider `CCc1cnc(N2CCN(c3nc4ccc(Oc5ccc(S(C)(=O)=O)cc5)nc4s3)CC2)nc1` [Compound 1010, 2-(4-(5-ethylpyrimidin-2-yl)piperazin-1-yl)-5-(4-(methylsulfonyl)phenoxy)thiazolo[5,4-b]pyridine], for which the activation at 1 µM turned out to be 8%.

Take `CC(C)OC(=O)N1CC=C(c2nc3ccc(-c4ccc(S(C)(=O)=O)cc4)nc3s2)CC1` [Compound 1011, isopropyl 4-(5-(4-(methylsulfonyl)phenyl)thiazolo[5,4-b]pyridin-2-yl)-5,6-dihydropyridine-1(2H)-carboxylate]: the activation at 1 µM turned out to be 19%.

`CC(C)OC(=O)N1CCN(c2nc3ccc(-c4ccc(S(C)(=O)=O)cc4)nc3s2)CC1` [Compound 1012, isopropyl 4-(5-(4-(methylsulfonyl)phenyl)thiazolo[5,4-b]pyridin-2-yl)piperazine-1-carboxylate]: the activation at 1 µM stood at 5%.

Regarding `CC(C)OC(=O)N1CCC(c2nc3ccc(-c4ccc(S(C)(=O)=O)cc4)nc3s2)CC1` [Compound 1013, isopropyl 4-(5-(4-(methylsulfonyl)phenyl)thiazolo[5,4-b]pyridin-2-yl)piperidine-1-carboxylate], the activation at 1 µM came out at 11%.

Take `CCc1cnc(N2CCC(C(=O)Nc3nc4ccc(-c5ccc(S(C)(=O)=O)cc5)nc4s3)CC2)nc1` [Compound 1014, 1-(5-ethylpyrimidin-2-yl)-N-(5-(4-(methylsulfonyl)phenyl)thiazolo[5,4-b]pyridin-2-yl)piperidine-4-carboxamide]: the activation at 1 µM was determined as 5%.

For the molecule `CS(=O)(=O)c1ccc(-c2ccc3nc(C4=CCN(CCO)CC4)sc3n2)cc1` [Compound 1015, 2-(4-(5-(4-(methylsulfonyl)phenyl)thiazolo[5,4-b]pyridin-2-yl)-5,6-dihydropyridin-1(2H)-yl)ethanol], the activation at 1 µM amounted to 2%.

Consider `CC(C)OC(=O)N1CCC(N(C)c2nc3ccc(-c4ccc(S(C)(=O)=O)cc4)nc3s2)CC1` [Compound 1016, isopropyl 4-(methyl(5-(4-(methylsulfonyl)phenyl)thiazolo[5,4-b]pyridin-2-yl)amino)piperidine-1-carboxylate], for which the activation at 1 µM came to 0%.

As to `CC(C)OC(=O)Oc1nc2ccc(-c3ccc(S(C)(=O)=O)cc3)nc2s1` [Compound 1019, isopropyl (5-(4-(methylsulfonyl)phenyl)thiazolo[5,4-b]pyridin-2-yl)carbonate], the activation at 1 µM worked out at 0%.

For `CC(C)c1noc(N2CCC(C(C)Oc3nc4ccc(-c5ccc(S(C)(=O)=O)cc5)nc4s3)CC2)n1` (stereo not drawn) [Compound 1020, 3-isopropyl-5-(4-(1-((5-(4-(methylsulfonyl)phenyl)thiazolo[5,4-b]pyridin-2-yl)oxy)ethyl)piperidin-1-yl)-1,2,4-oxadiazole], the activation at 1 µM came out at 68% and the pEC50 (commonly −log10 of the EC50, conventionally taken in molar units) was 6.30 to 7.00.

For `CC(C)c1noc(C2CCN(c3nc4ccc(-c5ccc(S(C)(=O)=O)cc5)nc4s3)C2)n1` (stereo not drawn) [Compound 1021, 3-isopropyl-5-(1-(5-(4-(methylsulfonyl)phenyl)thiazolo[5,4-b]pyridin-2-yl)pyrrolidin-3-yl)-1,2,4-oxadiazole], the activation at 1 µM was 13%.

In the case of `CC(C)c1noc(C2CCN(c3nc4ccc(-c5ccc(C(=O)N(C)C)cc5)nc4s3)CC2)n1` [Compound 1022, 4-(2-(4-(3-isopropyl-1,2,4-oxadiazol-5-yl)piperidin-1-yl)thiazolo[5,4-b]pyridin-5-yl)-N,N-dimethylbenzamide], the activation at 1 µM amounted to 35%.

Turning to `COCCNC(=O)c1ccc(-c2ccc3nc(N4CCC(c5nc(C(C)C)no5)CC4)sc3n2)cc1` [Compound 1024, 4-(2-(4-(3-isopropyl-1,2,4-oxadiazol-5-yl)piperidin-1-yl)thiazolo[5,4-b]pyridin-5-yl)-N-(2-methoxyethyl)benzamide], the activation at 1 µM was determined as 53%.

In the case of `CC(C)c1noc(C2CCN(c3nc4ccc(Nc5ccc(S(C)(=O)=O)c(F)c5)nc4s3)CC2)n1` [Compound 1025, N-(3-fluoro-4-(methylsulfonyl)phenyl)-2-(4-(3-isopropyl-1,2,4-oxadiazol-5-yl)piperidin-1-yl)thiazolo[5,4-b]pyridin-5-amine], the activation at 1 µM was 12%.

In the case of `Cc1ccc(S(=O)(=O)N2CC=C(c3nc4ccc(-c5ccc(S(C)(=O)=O)cc5)nc4s3)CC2)cc1` [Compound 1026, 5-(4-(methylsulfonyl)phenyl)-2-(1-tosyl-1,2,3,6-tetrahydropyridin-4-yl)thiazolo[5,4-b]pyridine], the activation at 1 µM stood at 5%.

Consider `CN(C)C(=O)N1CC=C(c2nc3ccc(-c4ccc(S(C)(=O)=O)cc4)nc3s2)CC1` [Compound 1027, N,N-dimethyl-4-(5-(4-(methylsulfonyl)phenyl)thiazolo[5,4-b]pyridin-2-yl)-5,6-dihydropyridine-1(2H)-carboxamide], for which the activation at 1 µM amounted to 3%.

With `CN(C)C(=O)N1CCC(c2nc3ccc(-c4ccc(S(C)(=O)=O)cc4)nc3s2)CC1` [Compound 1028, N,N-dimethyl-4-(5-(4-(methylsulfonyl)phenyl)thiazolo[5,4-b]pyridin-2-yl)piperidine-1-carboxamide], the activation at 1 µM came out at 2%.

In the case of `CC(C)c1noc(C2CCN(c3nc4ccc(-c5ccc(C(=O)N6CCOCC6)cc5)nc4s3)CC2)n1` [Compound 1029, (4-(2-(4-(3-isopropyl-1,2,4-oxadiazol-5-yl)piperidin-1-yl)thiazolo[5,4-b]pyridin-5-yl)phenyl)(morpholino)methanone], the activation at 1 µM was 47%.

For the molecule `CC(C)c1noc(N2CCC([C@H](C)Oc3nc4ccc(-c5ccc(S(C)(=O)=O)cc5)nc4s3)CC2)n1` [Compound 1031, (S)-3-isopropyl-5-(4-(1-((5-(4-(methylsulfonyl)phenyl)thiazolo[5,4-b]pyridin-2-yl)oxy)ethyl)piperidin-1-yl)-1,2,4-oxadiazole], the activation at 1 µM stood at 76% and the pEC50 was 7.00 to 7.30.

The record behind these values is US10526345B2, “Compounds as GPR119 agonists” (Mankind Pharma Ltd., priority 2016, dated 2020).
